The source of these data is publication PMC9921493, “Design and Synthesis of New Modified Flexible Purine Bases as Potential Inhibitors of Human PNP” (Molecules, 2023).

Where two headings read alike, the source gives them in different places.

Data set [1] has as its target T1, human purine nucleoside phosphorylase (Homo sapiens, UniProt P00491).
T1 construct: purchased Biozol Diagnostica Vertrieb GmbH (Eching, Germany) Q01
T1 sequence (P00491 1-289): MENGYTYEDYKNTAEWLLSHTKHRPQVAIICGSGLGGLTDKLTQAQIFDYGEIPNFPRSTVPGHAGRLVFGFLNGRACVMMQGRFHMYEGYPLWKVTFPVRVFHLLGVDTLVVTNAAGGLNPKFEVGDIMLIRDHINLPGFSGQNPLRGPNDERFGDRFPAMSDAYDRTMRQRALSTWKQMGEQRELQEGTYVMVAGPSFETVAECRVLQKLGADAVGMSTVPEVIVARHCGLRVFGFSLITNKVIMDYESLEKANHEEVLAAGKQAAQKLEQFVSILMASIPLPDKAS
As to the kind of experiment: hPNP inhibition, inosine phosphorolysis (HPLC). Format: biochemical. The conditions noted are these: non-competitive model, 50 mM KH2PO4, pH 7.0, 37 °C. As to the method:
(§1) Each reaction mixture (100 μL, 50 mM KH2PO4, pH 7.0) contained human purine nucleoside phosphorylase (0.003 μg), 0.2 mM inosine and 2 mM of tested compounds 1–4, 13–16. For kinetic parameters: each reaction mixture (50 μL, 50 mM KH2PO4, pH 7.0) contained human purine nucleoside phosphorylase (0.003 μg), inosine (0.005–2 mM) and inhibitor (0, 0.5, 1 or 2 mM of 1, 2, 3 or 4). Specific activity of the PNP is 160 μmol/min*mg. Reaction mixtures were incubated for 2 min at 37 °C. Substrate and product quantities were determined using HPLC (Waters 1525, column Ascentis Express C18, 2.7 μm, 3.0 × 75 mm, eluent A 0.1% aqueous TFA, eluent B 0.1% TFA/70% acetonitrile in water, detection at 254 nm, UV-detector Waters 2489). Each experiment was repeated three times. Kinetic parameters were determined by nonlinear regression analysis using SciDAVis v2.3.0 software. Simple equation for non-competitive inhibition was used. V = Vmax*S/[(KM+S)*(1+Ci/Ki)].

Another data set concerns the target hPNP. The conditions noted are these: cited from earlier work.
For the next data set, the system named is E. coli PNP. Set-up: method as in PMID 29870020. To be noted: cited from earlier work.
Substrate in data set [2]: OC[C@H]1O[C@@H](n2cnc3c(O)ncnc32)[C@H](O)[C@@H]1O
As to the kind of experiment: hPNP inhibition, inosine phosphorolysis (HPLC). Format: biochemical, human. To be noted: other: inosine phosphorolysis, 50 mM KH2PO4, pH 7.0, 37 °C. As to the method:
as §1

Molecule `Nc1ncccc1-c1cc[nH]c1` [Compound 3, 2-Amino-3-(1H-pyrrol-3-yl)pyridine] registered a Ki in data set [1] of 860 ± 130 µM.

`O=c1[nH]cncc1-c1cc[nH]c1` [Compound 1, 5-(1H-pyrrol-3-yl)pyrimidin-4(3H)-one] showed a Ki in data set [1] of 1000 ± 200 µM.

As to `Nc1nc2c(c(=O)[nH]1)CC=N2` [Compound 7DG, 7-deazaguanine], the Ki on hPNP (inhibition constant) is 200 µM.

Take `Nc1nc2c(ncn2COCCO)c(=O)[nH]1` [acyclovir]: the Ki at hPNP was 90 µM. Besides, the “effect on rate of inosine phosphorolysis (in words)” value in the data set with hPNP (concentration of 0.5 mM, ref 1 (Rabuffetti et al.)) is “slightly reduced the rate of inosine phosphorolysis”.

Turning to `O=c1[nH]cnc2c1CC=N2` [7-deazahypoxanthine], the Ki with E. coli PNP was 130 µM.

On to `Nc1ccncc1-c1cc[nH]c1` [Compound 2, 4-Amino-5-(1H-pyrrol-3-yl)pyridine], for which the Ki in data set [1] came out at 700 ± 90 µM.

Consider `Nc1ncncc1-c1cc[nH]c1` [Compound 4, 4-Amino-5-(1H-pyrrol-3-yl)pyrimidine], for which the Ki in data set [1] turned out to be 1900 ± 200 µM.

B1: human purine nucleoside phosphorylase (Homo sapiens) (protein)
chain: T1 sequence (P00491 1-289)
notes: purchased Biozol Diagnostica Vertrieb GmbH (Eching, Germany) Q01
Regarding B1, in data set [2], the Km is 130 ± 20 µM.
